This passage reports melting point results from patent US6350749B1, “Aminoguanidine hydrazone derivatives, process for producing the same and drugs thereof” (Takeda Chemical Industries, Ltd., priority 1998, dated 2002).

In general, melting point refers to the temperature of the solid-liquid transition.

Take `Cc1n[nH]c2c1C(=NNC(=N)N)CC(c1ccccc1O)C2.Cl` (stereo not shown): the melting point is 168 °C (dec.).

Regarding `Cc1cc(=O)[nH]c2c1C(=NNC(=N)N)CC(c1ccsc1)C2.Cl` (stereo not shown), the melting point is at least 300 °C.

On to `Cc1coc2c1/C(=N/NC(=N)N)CC(c1cccc(Cl)c1Cl)C2.Cl` (stereo not shown), for which the melting point was 286 °C (dec.).

On to `Cc1ccnc2c1C(=NNC(=N)NO)CC(c1cc(Br)sc1Br)C2.Cl` (stereo not shown), for which the melting point was 194 to 196 °C (dec.).

Take `COc1ccc(C2CC(=NNC(=N)N)c3c(C)coc3C2)cc1.Cl` (stereo not shown): the melting point was 182 °C (dec.).

Consider `Cc1ccc(F)cc1C1CC(=NNC(=N)N)c2c(C)ccnc2C1.Cl` (stereo not shown), for which the melting point fell in the range of 202 to 205 °C.

Consider `Cc1ccc2c(n1)CC(c1ccccc1)CC2=NNC(=N)N.Cl` (stereo not shown), for which the melting point is at least 300 °C.

Take `CCc1cn(S(C)(=O)=O)c2c1C(=NNC(=N)N)CC(c1ccccc1)C2.Cl` (stereo not shown): the melting point was 260 °C (dec.).

Consider `Cc1cn(S(C)(=O)=O)c2c1C(=NNC(=N)N)CC(c1ccccc1Cl)C2.Cl` (stereo not shown), for which the melting point is 258 °C (dec.).

As for `Cl.Cn1ccc2c1CC(c1ccccc1)CC2=NNC(=N)N` (stereo not shown), the melting point is 205 °C (dec.).

Regarding `Cc1ccnc2c1C(=NNC(=N)N)CC(c1cc(F)ccc1Cl)C2.Cl` (stereo not shown), the melting point is 268 °C (dec.).

`Cl.N=C(N)NN=C1CC(c2ccccc2)Cc2[nH]c(=O)ccc21` (stereo not shown) gave a melting point of at least 300 °C.

Consider `Cc1ccnc2c1C(=NNC(=N)NO)CC(c1cc(Cl)sc1Cl)C2.Cl` (stereo not shown), for which the melting point is 196 to 197 °C (dec.).

As for `COc1ccc(F)cc1C1CC(=NNC(=N)N)c2c(C)ccnc2C1.Cl` (stereo not shown), the melting point is at least 300 °C.

As for `Cc1cc(C)c2c(n1)CC(c1ccccc1F)CC2=NNC(=N)N.Cl` (stereo not shown), the melting point is 232 °C (dec.).

Regarding `Cc1ccnc2c1C(=NNC(=N)N)CC(c1cc(Cl)sc1Cl)C2.O=[N+]([O-])O` (stereo not shown), the melting point is 167 °C (dec.).

For `CNC(=N)NN=C1CC(c2ccccc2Cl)Cc2[nH]nc(C)c21.Cl` (stereo not shown), the melting point is 240 °C (dec.).

As for `Cc1ccnc2c1C(=NNC(=N)N)CC(c1cc(F)ccc1O)C2.Cl` (stereo not shown), the melting point was 264 to 266 °C.

With `CCc1c[nH]c2c1C(=NNC(=N)N)CC(c1ccccc1)C2.Cl` (stereo not shown), the melting point was in the range of 158 to 160 °C.

Take `Cc1cn(C)c2c1C(=NNC(=N)N)CC(c1ccccc1)C2.Cl` (stereo not shown): the melting point was 230 °C (dec.).

`Cc1ncnc2c1/C(=N/NC(=N)N)CC(c1ccccc1Cl)C2.Cl` (stereo not shown): the melting point was 284 °C (dec.).

Regarding `Cc1ccnc2c1C(=NNC(=N)N)CC(c1cc(Cl)sc1Cl)C2.Cl` (stereo not shown), the melting point was at least 300 °C.

Turning to `Cc1ccc(C2Cc3occc3/C(=N/NC(=N)N)C2C)s1.Cl` (stereo not shown), the melting point is 287 °C (dec.).

On to `CCOC(=O)c1coc2c1/C(=N/NC(=N)N)CC(c1ccccc1)C2.Cl` (stereo not shown), for which the melting point was 260 °C (dec.).

Consider `Cc1ccnc2c1C(=NNC(=N)N)CC(c1cc(Cl)sc1Cl)C2.O=S(=O)(O)O` (stereo not shown), for which the melting point was 239 to 242 °C.

For `Cl.N=C(N)NN=C1CC(c2ccccc2Cl)Cc2[nH]nc(-c3ccccc3)c21` (stereo not shown), the melting point was 185 °C (dec.).

In the case of `Cc1ccnc2c1C(=NNC(=N)N)CC(c1nccs1)C2.Cl` (stereo not shown), the melting point is 282 °C (dec.).

Regarding `Cc1ccc(C2CC(=NNC(=N)N)c3c(C)coc3C2)cc1.Cl` (stereo not shown), the melting point is 260 °C (dec.).

Consider `Cc1ccnc2c1C(=NNC(=N)N)CC(c1cccc(Cl)c1Cl)C2.Cl` (stereo not shown), for which the melting point lay in the range of 270 to 272 °C.

As to `Cc1nn(CCc2ccccc2)c2c1C(=NNC(=N)N)CC(c1ccccc1Cl)C2.Cl` (stereo not shown), the melting point was 152 to 154 °C.

As to `Cc1cn(S(C)(=O)=O)c2c1C(=NNC(=N)N)CC(c1ccccc1)C2.Cl` (stereo not shown), the melting point is 260 °C (dec.).

Compound `Cc1cnnc2c1C(=NNC(=N)N)CC(c1cc(Cl)ccc1F)C2.Cl` (stereo not shown) came in with a melting point of at least 300 °C.

For `Cc1coc2c1/C(=N/NC(=N)N)CC(c1ccco1)C2.Cl` (stereo not shown), the melting point is at least 300 °C.

Regarding `Cc1nn(CCCc2ccccc2)c2c1C(=NNC(=N)N)CC(c1ccccc1Cl)C2.Cl` (stereo not shown), the melting point was 210 °C (dec.).

In turn, `Cc1ccnc2c1C(=NNC(=N)N)CC(c1ccsc1)C2.Cl` (stereo not shown) showed a melting point of at least 300 °C.

`Cc1c2c(nn1CCCc1ccccc1)CC(c1ccccc1Cl)CC2=NNC(=N)N.Cl` (stereo not shown): the melting point was 170 to 180 °C.

Take `Cc1cc(Cl)c(C2CC(=NNC(=N)N)c3c(C)ccnc3C2)s1.Cl` (stereo not shown): the melting point was in the range of 198 to 200 °C.

As to `Cc1ccccc1C1CC(=NNC(=N)N)c2c(C)coc2C1.Cl` (stereo not shown), the melting point was 266 °C (dec.).

With `Cc1ccc(F)cc1C1CC(=NNC(=N)N)c2c(C)cnnc2C1.Cl` (stereo not shown), the melting point is 240 °C (dec.).

`Cc1cc[n+]([O-])c2c1C(=NNC(=N)N)CC(c1cc(Cl)sc1Cl)C2.Cl` (stereo not shown) showed a melting point of at least 300 °C.

In turn, `CS(=O)(=O)O.Cc1ccnc2c1C(=NNC(=N)N)CC(c1ccccc1Cl)C2` (stereo not shown) [Compound 65] displayed a melting point of 194 to 196 °C.

Regarding `Cc1ccnc2c1C(=NNC(=N)N)CC(c1ccccc1Br)C2.Cl` (stereo not shown), the melting point is 233 °C (dec.).

`Cc1coc2c1C(=NNC(=N)N)CC(c1ccccc1)C2.Cl` (stereo not shown): the melting point is 250 °C (dec.).

As to `Cc1ccnc2c1C(=NNC(=N)N)CC(c1cc(Cl)ccc1O)C2.Cl` (stereo not shown), the melting point was 202 °C (dec.).

For `Cc1ccccc1C1CC(=NNC(=N)N)c2c(C(F)(F)F)coc2C1.Cl` (stereo not shown), the melting point was 247 °C (dec.).

Regarding `Cc1coc2c1/C(=N/NC(=N)N)CC(c1ccccc1F)C2.Cl` (stereo not shown), the melting point is 288 °C (dec.).

`Cc1ccnc2c1C(=NNC(=N)N)CC(c1cc(Cl)sc1Cl)C2` (racemic) [Compound 108, (±)-7-(2,5-dichlorothiophen-3-yl)-5-guanidinoimino-4-methyl-5,6,7,8-tetrahydroquinoline] yielded a melting point of 250 to 251 °C.

Turning to `Cc1c[nH]c2c1C(=NNC(=N)N)CC(c1ccccc1)C2.Cl` (stereo not shown), the melting point is 176 °C (dec.).

As for `Cc1ccnc2c1C(=NNC(=N)N)CC(c1ccncc1)C2.Cl` (stereo not shown), the melting point was 267 °C (dec.).

For `Cc1ccnc2c1C(=NNC(=N)NO)CC(c1ccsc1)C2.Cl` (stereo not shown), the melting point is 201 to 202 °C (dec.).

Take `Cc1cn(S(C)(=O)=O)c2c1C(=NNC(=N)N)CC(c1ccccc1F)C2.Cl` (stereo not shown): the melting point is 286 °C (dec.).

`Cc1cc(=O)[nH]c2c1C(=NNC(=N)N)CC(c1ccccc1Cl)C2.Cl` (stereo not shown) gave a melting point of at least 300 °C.

`Cl.N=C(N)NN=C1CC(c2ccccc2)Cc2[nH]ccc21` (stereo not shown) displayed a melting point of 192 to 194 °C.

For `Cc1cnnc2c1C(=NNC(=N)NO)CC(c1cc(Cl)sc1Cl)C2.Cl` (stereo not shown), the melting point is 176 to 178 °C.

For the compound `Cc1ccccc1C1CC(=NNC(=N)N)c2c(C)n[nH]c2C1.Cl` (stereo not shown), the melting point is 211 °C (dec.).

Consider `Cc1coc2c1/C(=N/NC(=N)N)CC(c1ccccc1Cl)C2.Cl` (stereo not shown), for which the melting point is 300 °C (dec.).

With `Cc1ccnc2c1C(=NNC(=N)NO)CC(c1cccc(Cl)c1Cl)C2.Cl` (stereo not shown), the melting point is 196 to 198 °C (dec.).

As for `COc1ccccc1C1CC(=NNC(=N)N)c2c(C)ccnc2C1.Cl` (stereo not shown), the melting point is 192 °C (dec.).

Turning to `Cc1ccc(Cl)cc1C1CC(=NNC(=N)N)c2c(C)ccnc2C1.Cl` (stereo not shown), the melting point lay in the range of 215 to 220 °C.

Consider `Cc1cnnc2c1C(=NNC(=N)N)CC(c1ccsc1)C2.Cl` (stereo not shown), for which the melting point was 278 to 280 °C (dec.).

On to `Cc1ccc(Cl)c(C2CC(=NNC(=N)N)c3c(C)ccnc3C2)c1.Cl` (stereo not shown), for which the melting point lay in the range of 240 to 243 °C.

Regarding `Cc1coc2c1/C(=N/NC(=N)N)CC(c1ccccc1Br)C2.Cl` (stereo not shown), the melting point was 296 °C (dec.).

Regarding `Cc1ccnc2c1C(=NNC(=N)N)CC(c1c(Cl)cccc1Cl)C2.Cl` (stereo not shown), the melting point is at least 300 °C.

Turning to `Cc1cn[n+]([O-])c2c1C(=NNC(=N)N)CC(c1ccccc1Cl)C2.Cl` (stereo not shown), the melting point lay within 283 to 284 °C.

In the case of `Cc1ccc(F)c(C2CC(=NNC(=N)N)c3c(C)ccnc3C2)c1.Cl` (stereo not shown), the melting point fell in the range of 230 to 235 °C.

Regarding `CS(=O)(=O)O.Cc1ccnc2c1C(=NNC(=N)N)CC(c1cc(Cl)sc1Cl)C2` (stereo not shown) [Compound 111], the melting point is 225 to 229 °C.

In turn, `Cc1cc(=O)n(C)c2c1C(=NNC(=N)N)CC(c1ccsc1)C2.Cl` (stereo not shown) displayed a melting point of 156 to 157 °C.

As for `Cc1ccc2c(n1)CC(c1ccccc1C)CC2=NNC(=N)N.Cl` (stereo not shown), the melting point is 206 °C (dec.).

The compound `Cc1ccccc1C1CC(=NNC(=N)N)c2c(C)cn(S(C)(=O)=O)c2C1.Cl` (stereo not shown) yielded a melting point of 228 to 230 °C.

`Cc1ccnc2c1C(=NNC(=N)N)CC(c1cc(Br)sc1Br)C2.Cl` (stereo not shown) displayed a melting point of 272 to 273 °C.

Regarding `COCc1n[nH]c2c1C(=NNC(=N)N)CC(c1ccccc1Cl)C2.Cl` (stereo not shown), the melting point was in the range of 210 to 212 °C.

Regarding `Cc1ccnc2c1C(=NNC(=N)NO)CC(c1ccco1)C2.Cl` (stereo not shown), the melting point is 196 to 198 °C (dec.).

For `Cl.N=C(N)N/N=C1\CC(c2ccccc2)Cc2occ(C(N)=O)c21` (stereo not shown), the melting point is 294 °C (dec.).

On to `Cc1ccnc2c1C(=NNC(=N)N)CC(c1cc(Cl)ccc1Cl)C2.Cl` (stereo not shown), for which the melting point was at least 300 °C.

Turning to `Cc1n[nH]c2c1C(=NNC(=N)N)CC(c1cc(Cl)ccc1Cl)C2.Cl` (stereo not shown), the melting point is 287 °C (dec.).

As for `N=C(N)NN=C1CC(c2cc(Cl)sc2Cl)Cc2nncc(C(F)(F)F)c21` (stereo not shown) [Compound 135, 7-(2,5-dichlorothiophen-3-yl)-5-guanidinoimino-4-trifluoromethyl-5,6,7,8-tetrahydrocinnoline], the melting point was 265 to 266 °C (dec.).

As to `Cl.N=C(N)N/N=C1\CC(c2ccccc2Br)Cc2occ(C(F)(F)F)c21` (stereo not shown), the melting point was 289 °C (dec.).

`CS(=O)(=O)O.Cc1ccnc2c1C(=NNC(=N)N)CC(c1sc(Cl)cc1Cl)C2` (stereo not shown) [Compound 143] displayed a melting point of 168 to 172 °C.

`CS(=O)(=O)O.Cc1ccnc2c1C(=NNC(=N)N)CC(c1sc(Cl)cc1Cl)C2` (stereo not shown) [Compound 144] gave a melting point of 172 to 176 °C.

Consider `Cc1ccc(S(=O)(=O)n2ccc3c2CC(c2ccccc2)CC3=NNC(=N)N)cc1.Cl` (stereo not shown), for which the melting point was in the range of 252 to 256 °C.

Consider `Cc1ccnc2c1C(=NNC(=N)NO)CC(c1c(Cl)cccc1Cl)C2.Cl` (stereo not shown), for which the melting point was 193 to 195 °C (dec.).

For the compound `Cc1c2c(nn1-c1ccccc1)CC(c1ccccc1Cl)CC2=NNC(=N)N.Cl` (stereo not shown), the melting point was in the range of 192 to 194 °C.
